Assay: In vitro liver microsomal stability assay, rat
Assay type: in vitro ADME
Procedure, shortened: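 Test compound at […] was incubated at 37° C with 0.5 mg/mL rat or human liver microsomes, 1 mM NADPH and 3 mM MgCl2, in triplicate, sampled 0–60 min. Remaining parent was quantified by LC-MS/MS, giving half-life and microsomal and hepatic intrinsic clearance.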

## C[C@@]1(O)CC[C@H]2[C@H](CC[C@@H]3[C@@H]2CC[C@]2(C)[C@@H](C(=O)Cn4cnn(-c5cc(F)nc(F)c5)c4=O)CC[C@@H]32)C1 [Compound 41]
Rat liver microsomes
  CLint scaled at 1 µM: 23 mL/min/kg
  half-life at 1 µM: 1.8 h
Rat liver microsomes 0.5 mg/mL, NADPH
  Remaining amount % at 60 min: 68.3%
Rat liver microsomes, read-out: CLint(mic)
  microsomal CLint at 1 µM: 13 µL/min/mg

From patent US20250368678A1, “19-NOR-C3,3-DISUBSTITUTED C21-AZACYCLO-S[…] AND METHOD FOR USING SAME” (SHANDONG LUYE PHARMACEUTICAL CO., LTD., priority 2022, published 2025)
